# According to the NIST ThermoML archive (doi:10.1021/je060033f):
# ± gives the expanded uncertainty stated by the source.
# Assay: activity coefficient (dimensionless); of the first substance listed, at infinite dilution; xn = mol fraction of the nth substance listed
# Details: 323.15 K; 101 kPa; Liquid; Chromatography; x1 = 0
row,SMILES,activity coefficient
1,Cc1ccccc1 [toluene] + C=CC[n+]1ccn(CCCCCCCCCCCC)c1.[Br-],1.38 ± 0.09
2,Cc1ccccc1 [toluene] + C=CCn1cc[n+](C)c1.[Br-],6.19 ± 0.42
3,Cc1ccccc1 [toluene] + CCCCCCCCCCCC[n+]1ccn(CCCB(O)O)c1.[Br-],3.36 ± 0.23
4,Cc1ccccc1 [toluene] + CCCCCCCCCC[n+]1ccn(CCCB(O)O)c1.[Br-],1.8 ± 0.12
5,Cc1ccccc1 [toluene] + CCCCCCCC[n+]1ccn(CCCB(O)O)c1.[Br-],2.41 ± 0.16
6,Cc1ccccc1 [toluene] + C[n+]1ccn(CCCB(O)O)c1.[Br-],38.8 ± 2.6
7,ClC(Cl)Cl [trichloromethane] + C=CC[n+]1ccn(CCCCCCCC)c1.[Br-],0.14 ± 0.03
8,ClC(Cl)Cl [trichloromethane] + C=CC[n+]1ccn(CCCCCCCCCC)c1.[Br-],0.13 ± 0.03
9,ClC(Cl)Cl [trichloromethane] + C=CC[n+]1ccn(CCCCCCCCCCCC)c1.[Br-],0.12 ± 0.03

# The remaining lines, values ahead:
row,activity coefficient,SMILES
1,0.25 ± 0.03,ClC(Cl)Cl [trichloromethane] + C=CCn1cc[n+](C)c1.[Br-]
2,0.19 ± 0.03,ClC(Cl)Cl [trichloromethane] + CCCCCCCCCCCC[n+]1ccn(CCCB(O)O)c1.[Br-]
3,0.12 ± 0.03,ClC(Cl)Cl [trichloromethane] + CCCCCCCCCC[n+]1ccn(CCCB(O)O)c1.[Br-]
4,0.23 ± 0.03,ClC(Cl)Cl [trichloromethane] + CCCCCCCC[n+]1ccn(CCCB(O)O)c1.[Br-]
5,3.01 ± 0.2,ClC(Cl)Cl [trichloromethane] + C[n+]1ccn(CCCB(O)O)c1.[Br-]
